pIC50: −log10 of the molar value. Converted amounts (≈) assume the structure as drawn. “Also recorded” adds a separate entry of the source. Like-named read-outs stand apart in the source and are kept apart here.
Tests used:
[1] = test system: BHK-21 cells; test: MTS cytotoxicity assay on BHK-21 cells; details: BHK-21 cells, MTS assay, 2 days; more than 95% of treated cells viable
[2] = MTS cytotoxicity assay on BHK-21 cells; details: hamster
[3] = test system: CHIKV; test: Primary screening: CPE inhibition assay (confirmed by MTS) in CHIKV-infected Vero cells; details: for Antiviral activity in CPE inhibition and MTS assays: MOI = 1, 48 h; for CPE inhibitory activity: highest concentrations (tested as high as 200 μg/ml), MOI = 1, 48 hpi
[4] = test system: Vero cells; test: MTS cytotoxicity assay on Vero cells; details: Vero cells, MTS assay, 2 days; more than 95% of treated cells viable
[5] = MTS cytotoxicity assay on Vero cells; details: African green monkey
[6] = test system: CHIKV; test: Post-entry virus yield assay, CHIKV RNA copy number by qRT-PCR; details: for Inhibitory effect against CHIKV replication (RNA copy number): virus yield assay, qRT-PCR, Vero cells
[7] = test system: CHIKV replicon; design: method as in PMID 22205980; details: previous study, cited from earlier work

## O=c1c(O)c(-c2ccc(O)cc2)oc2cc(O)cc(O)c12 [Kaempferol]
[1]
  MNTD (maximum non-toxic dose): >200 µg/mL
[2]
  CC50 at 2 days: 537 µg/mL (≈ 1880 µM)
[3]
  Antiviral activity in CPE inhibition and MTS assays: neither kaempferol nor quercetin showed significant antiviral activity
  CPE inhibitory activity: 25%
[4]
  MNTD (maximum non-toxic dose): >400 µg/mL
[5]
  CC50 at 48 h: > 1000 µg/mL
[6]
  Inhibitory effect against CHIKV replication (RNA copy number): neither kaempferol nor quercetin showed any significant inhibitory effect; also recorded: no significant inhibitory effect

## O=c1c(O)c(-c2ccc(O)c(O)c2)oc2cc(O)cc(O)c12 [Quercetin]
[1]
  MNTD (maximum non-toxic dose): >500 µg/mL
[2]
  CC50 at 2 days: > 800 µg/mL
[3]
  Antiviral activity in CPE inhibition and MTS assays: neither kaempferol nor quercetin showed significant antiviral activity
  CPE inhibitory activity: 25%
[4]
  MNTD (maximum non-toxic dose): >400 µg/mL
[5]
  CC50 at 48 h: > 1000 µg/mL
[6]
  Inhibitory effect against CHIKV replication (RNA copy number): neither kaempferol nor quercetin showed any significant inhibitory effect; also recorded: no significant inhibitory effect

## COc1cc(C2Oc3cc([C@H]4Oc5cc(O)cc(O)c5C(=O)[C@@H]4O)ccc3OC2CO)ccc1O (stereo partly shown) [Silybin]
[4]
  MNTD (maximum non-toxic dose): >50 µg/mL
[5]
  CC50 at 48 h: > 200 µg/mL
[6]; Chikungunya virus, Vero
  IC50: 69.7 µg/mL (≈ 144 µM)
[7]; converted from μM
  IC50: approximately 30 μg/ml
[7]; read-out: IC50
  pIC50: 4.22

Reference: publication PMC4468427, “Antiviral activity of silymarin against chikungunya virus” (Scientific Reports, 2015)
